Where “and” joins values, the source holds several entries; their conditions need not be identical. Equal entries are not always repeated.
Columns and labels:
[1] = molecular target: Sialic acid-binding Ig-like lectin 9 (Homo sapiens, UniProt Q9Y336); assay: Hs-Siglec9 ALPHAscreen SOP 20170721
[2] = In vitro enzyme assay to detect hydrolysis of chlorophenol red-beta-D-[…] directly proportional to the number of Toxoplasma stably expressing beta-galactosidase; format: functional, organism-based, Toxoplasma gondii; settings: for IC50: Toxoplasma gondii
[3] = system: Mycobacterium tuberculosis; assay: Cornell M. t heat shock assay; format: functional, organism-based; settings: for IC50: Mycobacterium tuberculosis
Histidine--tRNA ligase = molecular target: T1, Histidine--tRNA ligase (Leishmania infantum, UniProt A4I591); assay: Leishmania infantum Histidine tRNA synthetase (LdHisRS); format: functional
T1 sequence (A4I591 whole entry): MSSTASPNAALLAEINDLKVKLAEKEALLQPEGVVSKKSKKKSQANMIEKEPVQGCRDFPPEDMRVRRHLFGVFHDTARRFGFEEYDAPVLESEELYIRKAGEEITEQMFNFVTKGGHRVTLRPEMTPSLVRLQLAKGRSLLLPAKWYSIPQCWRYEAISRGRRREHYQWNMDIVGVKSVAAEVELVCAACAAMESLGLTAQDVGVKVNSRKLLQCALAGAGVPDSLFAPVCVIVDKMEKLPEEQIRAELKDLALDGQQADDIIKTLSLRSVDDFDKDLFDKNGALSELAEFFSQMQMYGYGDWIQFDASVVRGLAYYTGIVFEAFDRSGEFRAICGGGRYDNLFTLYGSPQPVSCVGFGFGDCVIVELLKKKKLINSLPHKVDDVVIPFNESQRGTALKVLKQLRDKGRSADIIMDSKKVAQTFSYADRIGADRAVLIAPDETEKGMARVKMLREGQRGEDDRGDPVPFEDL

[4] = molecular target: T2, Coenzyme A biosynthesis bifunctional protein CoaBC (Mycobacterium tuberculosis (strain ATCC 25618 / H37Rv), UniProt P9WNZ1); assay: Biomol Green assay for MtCoaBC inhibitor, OD650 read; format: functional
T2 sequence (P9WNZ1 whole entry): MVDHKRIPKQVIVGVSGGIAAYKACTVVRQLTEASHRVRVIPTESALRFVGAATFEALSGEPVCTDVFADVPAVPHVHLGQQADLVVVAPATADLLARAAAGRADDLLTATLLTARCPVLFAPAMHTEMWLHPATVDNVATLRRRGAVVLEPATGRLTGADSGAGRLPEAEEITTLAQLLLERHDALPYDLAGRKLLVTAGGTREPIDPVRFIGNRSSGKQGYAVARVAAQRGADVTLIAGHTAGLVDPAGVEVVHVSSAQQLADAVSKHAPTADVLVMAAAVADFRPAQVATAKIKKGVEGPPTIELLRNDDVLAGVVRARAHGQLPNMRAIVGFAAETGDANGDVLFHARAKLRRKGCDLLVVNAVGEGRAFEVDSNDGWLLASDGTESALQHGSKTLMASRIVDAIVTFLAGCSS

Lysine--tRNA ligase = Lysine--tRNA ligase (Plasmodium falciparum (isolate 3D7), UniProt Q8IDJ8); assay: Pf-KRS-1 (Lysyl-RNA Synthetase-1, KRS-1, cytosolic KRS) from Plasmodium falciparum. Inhibitor assay, 384 well plate, luminescence read.; format: functional
Plasmodium falciparum = assay: Calibr Malaria Delayed Death Assay SOP; format: functional, organism-based; settings: for IC50: Plasmodium falciparum
Wolbachia pipientis = assay: Anti-Wolbachia Cell-Based Screen; format: functional; settings: for IC50: Wolbachia pipientis
ClpP1P2 = ClpP1P2 (Mycobacterium tuberculosis (strain ATCC 25618 / H37Rv), UniProt P9WPC3+P9WPC5); assay: in vitro assay to detect presence of AMC directly proportional to the activity of ClpP1P2. GHDDI collaboration.; format: functional
[5] = microbe, parasite or virus in culture; settings: Mycobacterium tuberculosis, 96 h, read-out: pIC50 (converted)
[6] = microbe, parasite or virus in culture; settings: Mycobacterium tuberculosis, 72 h, read-out: pIC50 (converted)
Tryptophan--tRNA ligase = Tryptophan--tRNA ligase (Mycobacterium tuberculosis (strain ATCC 25618 / H37Rv), UniProt P9WFT3); assay: Biochemical assay for Mt-TrpRS; format: functional
Leishmania donovani = assay: Leishmania intramacrophage assay; format: functional, organism-based; settings: for IC50: Leishmania donovani
[7] = molecular target: Polyketide synthase Pks13 (Mycobacterium tuberculosis (strain ATCC 25618 / H37Rv), UniProt I6X8D2); assay: Mycobacterium tuberculosis Polyketide synthase 13 Thioesterase (PKS13); format: functional

## COc1cc(C)sc1C(=O)N1CC(c2cccnc2)C1
[1]
  IC50: > 30.2 µM

## Cc1oc(C)c(C(=O)Nc2ccccn2)c1C
[1]
  IC50: > 30.2 µM

## Cc1ccc(CN(CCCn2ccnc2)Cc2cc(F)ccc2F)s1.O=C(O)CC(O)(CC(=O)O)C(=O)O
[2]
  IC50: 7.16 µM
[3]
  pIC50: 4.62
  IC50: 18.9 µM

## Cc1nnc(NCc2ccccc2F)c(C#N)c1C
Histidine--tRNA ligase
  IC50: 16.9 µM and 23.1 µM
[3]
  IC50: 78.6 µM

## COc1ccc(-n2cc(CCO)cn2)cc1C
Histidine--tRNA ligase
  IC50: 17.7 µM and 11.1 µM
[4]
  IC50: > 30.2 µM
[3]
  IC50: 41.4 µM
Lysine--tRNA ligase
  IC50: > 50.1 µM

## Cc1cccc(CN2CCCC2c2cccc(Nc3nccs3)n2)c1 (stereo unspecified)
Plasmodium falciparum
  pIC50: 5.988
  IC50: 1.01 µM
[3]
  pIC50: 5.755
  IC50: 2.41 µM
Wolbachia pipientis
  pIC50: 5.856
  IC50: 1.87 µM

## CCN(CC)c1nc(Nc2cccc(C(C)O)c2)nc2ccccc12 (stereo unspecified)
ClpP1P2
  IC50: > 100 µM
[5]
  IC50: 22.9 µM
[2]
  pIC50: 5.586
  IC50: 2.08 µM
[3]
  IC50: 12.2 µM
[6]
  IC50: 25.7 µM

## O=C(CN1CC(c2nc(C3CC3)no2)C1)N1CCOCC1.O=C(O)C(=O)O
[2]
  pIC50: 5.075
  IC50: 5.21 µM
[3]
  IC50: > 100 µM

## COc1cccc(CNCc2nc3ccccc3c(=O)[nH]2)c1
Tryptophan--tRNA ligase
  IC50: > 195 µM
[3]
  IC50: 67.4 µM

## Fc1cccc(Nc2nc(N3CCCC3)nc3c2CNCC3)c1
[5]
  IC50: 18.8 µM
[3]
  IC50: 25.8 µM
[6]
  IC50: 23.6 µM
Leishmania donovani
  pIC50: 5.271
  IC50: 3.49 µM

## CN[C@@H]1CCC[C@@H](Oc2ccccc2Oc2ccc(C)cc2)[C@@H]1O
Plasmodium falciparum
  pIC50: 6.476
  IC50: 0.349 µM
[5]
  IC50: > 50.1 µM
[3]
  pIC50: 4.304
  IC50: 89.2 µM
[6]
  IC50: 35.8 µM
Leishmania donovani
  pIC50: 5.128
  IC50: 5.46 µM

## CC(C)C(NC(=O)c1cnc(N2CCOCC2)nc1)c1cccs1 (stereo unspecified)
[5]
  IC50: 48.9 µM
[4]
  IC50: > 30.2 µM
[3]
  IC50: 48.2 µM
[6]
  IC50: 44.9 µM

## Cc1ccccc1CN1CCCC1c1cccc(Nc2nccs2)n1 (stereo unspecified)
[4]
  IC50: > 30.2 µM
[3]
  pIC50: 5.632
  IC50: 1.93 µM

## COc1ccc(F)c(CN(CCCn2ccnc2)Cc2ccc(C)s2)c1.O=C(O)CC(O)(CC(=O)O)C(=O)O
[2]
  IC50: 7.3 µM
[3]
  pIC50: 4.599
  IC50: 27.4 µM

## Cc1nc(-n2nc(C3CC3)cc2NC(=O)C(C)C)[nH]c(=O)c1C
[5]
  IC50: 14.2 µM
[2]
  pIC50: 5.686
  IC50: 3.09 µM
[3]
  IC50: 7.58 µM
[6]
  IC50: 10.2 µM

## c1ccc2oc(CCCN3CCCCC3Cn3cncn3)nc2c1 (stereo unspecified)
[3]
  IC50: > 100 µM
[7]
  IC50: > 100 µM

## Cc1ccc(Oc2cc(F)ccc2O[C@@H]2CCC[C@@H](N)[C@H]2O)cc1
Plasmodium falciparum
  pIC50: 6.291
  IC50: 0.584 µM
[5]
  IC50: 47.8 µM
[2]
  IC50: 8.59 µM
[3]
  pIC50: 4.493
  IC50: 33.6 µM
[6]
  IC50: 39.4 µM
Leishmania donovani
  pIC50: 4.961
  IC50: 6.4 µM

## Cn1c(CCN2CCN(c3ccc(O)cc3)CC2)nc2ccccc21
[2]
  pIC50: 4.61
  IC50: 23.8 µM
[3]
  IC50: 68.5 µM

## Cc1cnc(Nc2cccc(C3CCCN3Cc3cn(C)nc3C)n2)s1 (stereo unspecified)
[4]
  IC50: > 30.2 µM
[3]
  pIC50: 5.045 and 4.742
Wolbachia pipientis
  pIC50: 5.174
  IC50: 5.37 µM

## CC(C)C[C@H](N)COc1cccc(F)c1Oc1cccc(Cl)c1
ClpP1P2
  IC50: > 100 µM
[5]
  IC50: 22.6 µM
[3]
  IC50: 13.9 µM
[6]
  IC50: 18.5 µM

## CCN(CC)S(=O)(=O)N1CCCC1c1cccc(Nc2ncc(C)s2)n1 (stereo unspecified)
[3]
  IC50: > 100 µM
Wolbachia pipientis
  pIC50: 5.165
  IC50: 8.99 µM

## Oc1cc(C2CCCCN2Cc2cccs2)nc(-c2ccccn2)n1 (stereo unspecified)
[2]
  IC50: 2.42 µM
[3]
  IC50: 17.3 µM

## Cc1ccc(Oc2c(F)cccc2OC[C@@H](N)CC(C)C)cc1
[5]
  IC50: 25.5 µM
[3]
  IC50: 25.1 µM
[6]
  IC50: 23.4 µM
Leishmania donovani
  pIC50: 5.171
  IC50: 12.4 µM

## CS(=O)(=O)N1CCCC1c1cccc(Nc2nccs2)n1 (stereo unspecified)
[3]
  IC50: > 100 µM
Wolbachia pipientis
  pIC50: 5.083
  IC50: 9.08 µM

## Cc1nn(C)c(C)c1CCn1cncc1-c1ccc2c(c1)CC(C)N2C.Cl (stereo unspecified)
Histidine--tRNA ligase
  IC50: 43.1 µM and 43 µM
Plasmodium falciparum
  pIC50: 5.741
  IC50: 1.72 µM
[3]
  IC50: > 100 µM
Leishmania donovani
  IC50: > 50.1 µM

## CN(C)CCN(C)C(=O)Cn1cccc2cc(-c3ccc(F)cc3)nc1-2
Plasmodium falciparum
  pIC50: 6.323
  IC50: 0.489 µM
ClpP1P2
  IC50: > 100 µM
[3]
  pIC50: 4.438
  IC50: 42.9 µM
Leishmania donovani
  pIC50: 4.872
  IC50: 9.3 µM

## O=C(CN1CCOC(CNc2cccnn2)C1)NCc1cccs1 (stereo unspecified)
[3]
  IC50: > 100 µM
Wolbachia pipientis
  IC50: > 10 µM

## CC1(c2ccccc2)CCCN(Cc2cncn2C2CCCC2)C1 (stereo unspecified)
[5]
  IC50: 18.5 µM
[2]
  IC50: 4.15 µM
[3]
  IC50: 14.4 µM
[6]
  IC50: 20.4 µM

## CS(=O)(=O)N[C@@H]1CN(C(=O)c2cc3ccccc3s2)C[C@H]1O
Tryptophan--tRNA ligase
  IC50: > 195 µM
[5]
  IC50: > 50.1 µM
[3]
  pIC50: 4.54
  IC50: 24.6 µM
[6]
  IC50: 25.4 µM

## c1ccc(CCN2CCCC2c2cccc(Nc3nccs3)n2)cc1 (stereo unspecified)
[4]
  IC50: > 30.2 µM
[3]
  pIC50: 4.565
  IC50: 38.9 µM
Wolbachia pipientis
  pIC50: 5.678
  IC50: 1.09 µM

## CC(Cn1cccn1)NCc1csc(Cc2ccccc2)n1 (stereo unspecified)
[4]
  IC50: > 30.2 µM
[3]
  IC50: 12.7 µM

## Cc1ccc(CN(CCCn2ccnc2)Cc2cccs2)s1
Tryptophan--tRNA ligase
  IC50: > 195 µM
[5]
  IC50: 25.9 µM
[3]
  IC50: 19.9 µM
[6]
  IC50: 42 µM

## Cc1nc(C2CCNCC2)cc(N(C)Cc2cc3cc(F)ccc3[nH]2)n1
Plasmodium falciparum
  pIC50: 6.017
  IC50: 0.803 µM
[2]
  pIC50: 5.24 and 4.835
[3]
  IC50: 72.3 µM
Leishmania donovani
  pIC50: 4.976
  IC50: 11.9 µM

## Cc1ncc(CNCCO)c2cc(C(=O)c3ccc(Br)cc3)oc12.Cl
Plasmodium falciparum
  pIC50: 6.356
  IC50: 0.541 µM
[2]
  IC50: 9.37 µM
[3]
  IC50: > 49 µM

## Cc1cc(=O)[nH]c(-n2nc(C3CC3)cc2N)n1
[5]
  IC50: 41.2 µM
[3]
  IC50: 27.5 µM
[6]
  IC50: 30.1 µM
Leishmania donovani
  pIC50: < 4.3 and 4.677

## CCc1cc(=O)[nH]c(NC2CCN(S(=O)(=O)c3ccccc3)CC2)n1
[4]
  IC50: > 30.2 µM
[3]
  IC50: > 100 µM

Source: ChEMBL document CHEMBL3988442, “University of Dundee, Small-Polar-MMV Screening Library” (2021)
